Patent US6159979A, “Bicyclic aryl or a bicyclic heterocyclic ring containing compounds having a combined 5HT1A, 5HT1B and 5HT1D receptor antagonistic activity” (SmithKline Beecham p.l.c., priority 1997, dated 2000)

How the values were obtained:
5-HT1B receptors = target: T1, 5-HT1B receptors (Homo sapiens, UniProt P28222); experiment: 5-HT1B receptor binding ([3H]-5-HT, CHO cell homogenate); details: CHO cells expressing 5-HT1B receptors; [3H]-5-HT (4nM); pH 7.7, 37° C., 45 minutes; read-out: pKi values at 5-HT1B (converted)
T1 construct: expressed in transfected cells; host or cells: CHO
T1 sequence (P28222 whole entry): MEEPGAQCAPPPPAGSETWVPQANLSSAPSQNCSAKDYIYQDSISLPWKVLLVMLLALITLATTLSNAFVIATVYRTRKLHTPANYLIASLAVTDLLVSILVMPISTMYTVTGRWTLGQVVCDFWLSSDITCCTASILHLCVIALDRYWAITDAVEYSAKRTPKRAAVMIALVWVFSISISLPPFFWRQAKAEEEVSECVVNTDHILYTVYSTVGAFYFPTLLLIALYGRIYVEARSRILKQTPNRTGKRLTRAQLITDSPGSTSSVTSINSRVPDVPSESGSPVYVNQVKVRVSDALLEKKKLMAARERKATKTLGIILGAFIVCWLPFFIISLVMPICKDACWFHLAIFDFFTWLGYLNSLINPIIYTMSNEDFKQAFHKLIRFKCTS
Method: (§1) 5-HT1A, 5-HT1B and 5-HT1D Receptor Binding
(§2) HEK 293 cells expressing 5-HT1A receptors (4×10^7 /ml) were homogenised in Tris buffer and stored in 1 ml aliquots. CHO cells expressing 5-HT1B receptors (4×10^7 cells/ml) were homogenised in Tris buffer and stored in 1.5 ml aliquots. CHO cells expressing 5-HT1D receptors (0.563×10^8 /ml) were homogenised in Tris buffer and stored in 1 ml aliquots.
(§3) 0.4 ml of a cell suspension was incubated with [^3 H]-5-HT (4nM) for 5-HT1B/1D receptors and [^3 H]-8-OH DPAT (1nM) for 5-HT1A receptors in Tris Mg HCl buffer (pH 7.7) and test drug, at 37° C. for 45 minutes. Each test drug was tested at 10 concentrations (0.01 mM to 0.3 nM final concentration), with non-specific binding defined using 0.01 mM 5-HT. The total assay volume was 0.5 ml. Incubation was stopped by rapid filtration using a Packard Filtermate (filters pre-soaked in 0.3% polyethylenimine) and radioactivity measured by Topcount scintillation counting. pKi values were calculated from the IC50 generated by an iterative least squares curve fitting programme.

5-HT1A receptors = target: T2, 5-HT1A receptors (Homo sapiens, UniProt P08908); experiment: 5-HT1A receptor binding ([3H]-8-OH DPAT, HEK 293 cell homogenate); details: HEK 293 cells expressing 5-HT1A receptors; [3H]-8-OH DPAT (1nM); pH 7.7, 37° C., 45 minutes; read-out: pKi values at 5-HT1A (converted)
T2 construct: expressed in transfected cells; host or cells: HEK 293
T2 sequence (P08908 1-422): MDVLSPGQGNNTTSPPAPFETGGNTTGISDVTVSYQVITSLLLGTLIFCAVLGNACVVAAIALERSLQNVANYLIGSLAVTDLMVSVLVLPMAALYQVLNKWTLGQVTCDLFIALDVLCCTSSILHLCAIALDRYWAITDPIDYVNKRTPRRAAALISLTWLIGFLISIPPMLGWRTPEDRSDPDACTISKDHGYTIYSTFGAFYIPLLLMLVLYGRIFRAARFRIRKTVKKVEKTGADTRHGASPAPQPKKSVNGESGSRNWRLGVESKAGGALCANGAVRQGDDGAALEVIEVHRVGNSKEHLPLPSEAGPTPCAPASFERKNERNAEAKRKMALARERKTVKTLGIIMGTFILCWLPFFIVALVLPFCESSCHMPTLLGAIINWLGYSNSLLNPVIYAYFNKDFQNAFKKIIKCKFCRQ
Method: as §1, §2, §3

5-HT1D receptors = target: T3, 5-HT1D receptors (Homo sapiens, UniProt P28221); experiment: 5-HT1D receptor binding ([3H]-5-HT, CHO cell homogenate); details: CHO cells expressing 5-HT1D receptors; [3H]-5-HT (4nM); pH 7.7, 37° C., 45 minutes; read-out: pKi values at 5-HT1D (converted)
T3 construct: expressed in transfected cells; host or cells: CHO
T3 sequence (P28221 whole entry): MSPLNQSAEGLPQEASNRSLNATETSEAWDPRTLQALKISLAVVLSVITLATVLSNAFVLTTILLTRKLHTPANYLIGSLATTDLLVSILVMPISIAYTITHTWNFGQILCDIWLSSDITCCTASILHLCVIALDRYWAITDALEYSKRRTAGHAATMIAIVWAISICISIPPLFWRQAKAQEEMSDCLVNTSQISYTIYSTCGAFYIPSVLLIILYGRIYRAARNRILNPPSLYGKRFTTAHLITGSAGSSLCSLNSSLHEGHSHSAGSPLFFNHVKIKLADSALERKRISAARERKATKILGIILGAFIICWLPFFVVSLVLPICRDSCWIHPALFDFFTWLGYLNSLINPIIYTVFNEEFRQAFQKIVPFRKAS
Method: as §1, §2, §3

Measured: Ki

CN1CCN(c2cc(NC(=O)Nc3ccc(-c4ccncc4)c4ccccc34)ccc2Cl)CC1 [Example 11, N-[4-Chloro-3-(4-methylpiperazin-1-yl)phenyl]-N'-[4-(pyridin-4-yl)naphth-1-yl]urea]
< 0.01 µM: all assays above

CN1CCN(c2cc(NC(=O)Cc3ccc(-c4ccncc4)c4ccccc34)ccc2Br)CC1 [Example 38, N-[4-Bromo-3-(4-methylpiperazin-1-yl)phenyl]-4-(pyridin-4-yl)naphth-1-ylacetamide]
< 0.01 µM: all assays above

COc1ccc(NC(=O)Nc2cccc3c(-c4ccccc4)cccc23)cc1N1CCN(C)CC1 [Example 33, N-[4-Methoxy-3-(4-methylpiperazin-1-yl)phenyl]-N'-[5-phenylnaphth-1-yl]urea]
< 0.01 µM: all assays above

COc1ccc(NC(=O)Cc2ccc(-c3ccncc3)c3ccccc23)cc1N1CCN(C)CC1 [Example 10, N-[4-Methoxy-3-(4-methylpiperazin-1-yl)phenyl]-4-(pyridin-4-yl)naphth-1-ylacetamide]
< 0.01 µM: all assays above

COc1ccc(NC(=O)Cc2ccc(-c3cccnc3)c3ccccc23)cc1N1CCN(C)CC1 [Example 28, N-[4-Methoxy-3-(4-methylpiperazin-1-yl)phenyl]-4-(pyridin-3-yl)naphth-1-ylacetamide]
< 0.01 µM: all assays above

COc1ccc(NC(=O)Nc2cccc3c(-c4cccc(C(C)=O)c4)cccc23)cc1N1CCN(C)CC1 [Example 40, N-[5-(3-Acetylphenyl)naphth-1-yl]-N'-[4-methoxy-3-(4-methylpiperazin-1-yl)phenyl]urea]
< 0.01 µM: all assays above
